From PubChem BioAssay AID2060494 (Molecular Pharmacology Branch, DTP, NCI, 2025)
pIC50: −log10 of the molar value.

Test system: 435261-313-R-J1-PDC complex spheroid viability
Experiment: Anticancer human tumor 435261-313-R-J1-PDC patient-derived colon adenocarcinoma cell line growth inhibition [GQUAD]
Details: for pIC50: curve of first compound; for viability, T/C: stronger effect = lower value
Summary of the method: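 Tumor cells were grown as complex spheroids with HUVEC endothelial cells and mesenchymal stem cells as stroma. G-quadruplex stabilizers were combined with targeted agents over half-log dilutions from near the clinical Cmax, or from 10 microM.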

[1] = second compound 0.0316 µM, first compound 0.0316 µM
[2] = second compound 0.0316 µM, first compound 0.1 µM
[3] = second compound 0.0316 µM, first compound 0.316 µM
[4] = second compound 0.0316 µM, first compound 1 µM
[5] = second compound 0.0316 µM, first compound 3.16 µM
[6] = second compound 0.0316 µM, first compound 10 µM
[7] = second compound 0.1 µM, first compound 0.0316 µM
[8] = second compound 0.1 µM, first compound 0.1 µM
[9] = second compound 0.1 µM, first compound 0.316 µM
[10] = second compound 0.1 µM, first compound 1 µM
[11] = second compound 0.1 µM, first compound 3.16 µM
[12] = second compound 0.1 µM, first compound 10 µM
[13] = second compound 0.316 µM, first compound 0.0316 µM
[14] = second compound 0.316 µM, first compound 0.1 µM
[15] = second compound 0.316 µM, first compound 0.316 µM
[16] = second compound 0.316 µM, first compound 1 µM
[17] = second compound 0.316 µM, first compound 3.16 µM
[18] = second compound 0.316 µM, first compound 10 µM
[19] = second compound 1 µM, first compound 0.0316 µM
[20] = second compound 1 µM, first compound 0.1 µM
[21] = second compound 1 µM, first compound 0.316 µM
[22] = second compound 1 µM, first compound 1 µM
[23] = second compound 1 µM, first compound 3.16 µM
[24] = second compound 1 µM, first compound 10 µM
[25] = second compound 3.16 µM, first compound 0.0316 µM
[26] = second compound 3.16 µM, first compound 0.1 µM
[27] = second compound 3.16 µM, first compound 0.316 µM
[28] = second compound 3.16 µM, first compound 1 µM
[29] = second compound 3.16 µM, first compound 3.16 µM
[30] = second compound 3.16 µM, first compound 10 µM
[31] = second compound 10 µM, first compound 0.0316 µM
[32] = second compound 10 µM, first compound 0.1 µM
[33] = second compound 10 µM, first compound 0.316 µM
[34] = second compound 10 µM, first compound 1 µM
[35] = second compound 10 µM, first compound 3.16 µM
[36] = second compound 10 µM, first compound 10 µM
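Further: spheroids exposed to the agents for seven days before readout.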
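Wherever viability, T/C is given: percent of vehicle control viability with DMSO wells as 100%.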

## CC1COCCN1c1cc(C2(O)CC3CCC(C2)O3)c2cnn(-c3ccn[nH]3)c2n1 (stereo unspecified) + CN(C)c1ccc(Nc2c3ccc(NC(=O)CCN4CCCC4)cc3nc3cc(NC(=O)CCN4CCCC4)ccc23)cc1
Second compound 0.0316 µM
  pIC50: 6.71
Second compound 0.1 µM
  pIC50: 6.50
Second compound 0.316 µM
  pIC50: 6.65
Second compound 1 µM
  pIC50: 6.59
Second compound 3.16 µM
  pIC50: > 7.50
Second compound 10 µM
  pIC50: > 7.50
[1]
  viability, T/C: 63%
[2]
  viability, T/C: 58.1%
[3]
  viability, T/C: 45.1%
[4]
  viability, T/C: 27.4%
[5]
  viability, T/C: 23.2%
[6]
  viability, T/C: 12%
[7]
  viability, T/C: 71.3%
[8]
  viability, T/C: 82.8%
[9]
  viability, T/C: 47.3%
[10]
  viability, T/C: 26.8%
[11]
  viability, T/C: 21.1%
[12]
  viability, T/C: 10.8%
[13]
  viability, T/C: 75.1%
[14]
  viability, T/C: 61.7%
[15]
  viability, T/C: 45.7%
[16]
  viability, T/C: 28.9%
[17]
  viability, T/C: 25%
[18]
  viability, T/C: 11.6%
[19]
  viability, T/C: 82.7%
[20]
  viability, T/C: 64.5%
[21]
  viability, T/C: 48%
[22]
  viability, T/C: 28.3%
[23]
  viability, T/C: 21.1%
[24]
  viability, T/C: 7.4%
[25]
  viability, T/C: 48.6%
[26]
  viability, T/C: 44.3%
[27]
  viability, T/C: 31.9%
[28]
  viability, T/C: 13.3%
[29]
  viability, T/C: 9.48%
[30]
  viability, T/C: 3.11%
[31]
  viability, T/C: 26.9%
[32]
  viability, T/C: 18.5%
[33]
  viability, T/C: 17%
[34]
  viability, T/C: 7.23%
[35]
  viability, T/C: 3.13%
[36]
  viability, T/C: 1.2%

## C=CC(=O)N1CCN(c2nc(=O)n(-c3c(C)ccnc3C(C)C)c3nc(-c4c(O)cccc4F)c(F)cc23)C(C)C1 (stereo unspecified) + CN(C)c1ccc(Nc2c3ccc(NC(=O)CCN4CCCC4)cc3nc3cc(NC(=O)CCN4CCCC4)ccc23)cc1
Second compound 0.0316 µM
  pIC50: < 5.00
Second compound 0.1 µM
  pIC50: < 5.00
Second compound 0.316 µM
  pIC50: < 5.00
Second compound 1 µM
  pIC50: < 5.00
Second compound 3.16 µM
  pIC50: < 5.00
Second compound 10 µM
  pIC50: > 7.50
[1]
  viability, T/C: 98.5%
[2]
  viability, T/C: 146%
[3]
  viability, T/C: 119%
[4]
  viability, T/C: 97.6%
[5]
  viability, T/C: 100%
[6]
  viability, T/C: 105%
[7]
  viability, T/C: 111%
[8]
  viability, T/C: 109%
[9]
  viability, T/C: 111%
[10]
  viability, T/C: 138%
[11]
  viability, T/C: 115%
[12]
  viability, T/C: 173%
[13]
  viability, T/C: 159%
[14]
  viability, T/C: 106%
[15]
  viability, T/C: 123%
[16]
  viability, T/C: 120%
[17]
  viability, T/C: 111%
[18]
  viability, T/C: 103%
[19]
  viability, T/C: 122%
[20]
  viability, T/C: 101%
[21]
  viability, T/C: 149%
[22]
  viability, T/C: 99.8%
[23]
  viability, T/C: 145%
[24]
  viability, T/C: 109%
[25]
  viability, T/C: 69.4%
[26]
  viability, T/C: 98.3%
[27]
  viability, T/C: 114%
[28]
  viability, T/C: 113%
[29]
  viability, T/C: 102%
[30]
  viability, T/C: 87.1%
[31]
  viability, T/C: 30.8%
[32]
  viability, T/C: 45.6%
[33]
  viability, T/C: 54%
[34]
  viability, T/C: 71.5%
[35]
  viability, T/C: 70.9%
[36]
  viability, T/C: 30.2%

## C=CCn1c(=O)c2cnc(Nc3ccc(N4CCN(C)CC4)cc3)nc2n1-c1cccc(C(C)(C)O)n1 + CN(C)c1ccc(Nc2c3ccc(NC(=O)CCN4CCCC4)cc3nc3cc(NC(=O)CCN4CCCC4)ccc23)cc1
Second compound 0.0316 µM
  pIC50: < 5.00
Second compound 0.1 µM
  pIC50: < 5.00
Second compound 0.316 µM
  pIC50: 5.12
Second compound 1 µM
  pIC50: < 5.00
Second compound 3.16 µM
  pIC50: < 5.00
Second compound 10 µM
  pIC50: 6.45
[1]
  viability, T/C: 128%
[2]
  viability, T/C: 145%
[3]
  viability, T/C: 84.1%
[4]
  viability, T/C: 103%
[5]
  viability, T/C: 81.8%
[6]
  viability, T/C: 65.2%
[7]
  viability, T/C: 96.4%
[8]
  viability, T/C: 89.1%
[9]
  viability, T/C: 87.9%
[10]
  viability, T/C: 69.7%
[11]
  viability, T/C: 91.7%
[12]
  viability, T/C: 73%
[13]
  viability, T/C: 92.7%
[14]
  viability, T/C: 81.5%
[15]
  viability, T/C: 86.6%
[16]
  viability, T/C: 78.1%
[17]
  viability, T/C: 64%
[18]
  viability, T/C: 45.5%
[19]
  viability, T/C: 80.8%
[20]
  viability, T/C: 98.7%
[21]
  viability, T/C: 66.6%
[22]
  viability, T/C: 90.4%
[23]
  viability, T/C: 75.8%
[24]
  viability, T/C: 54.6%
[25]
  viability, T/C: 50.9%
[26]
  viability, T/C: 48.2%
[27]
  viability, T/C: 63.4%
[28]
  viability, T/C: 70.1%
[29]
  viability, T/C: 57.8%
[30]
  viability, T/C: 34%
[31]
  viability, T/C: 32.7%
[32]
  viability, T/C: 90.5%
[33]
  viability, T/C: 44.8%
[34]
  viability, T/C: 31.8%
[35]
  viability, T/C: 23.9%
[36]
  viability, T/C: 9.35%
